Data taken from US9809578B2, “Pyrazolyl urea, thiourea, guanidine and cyanoguanidine compounds as trkA kinase inhibitors” (Array BioPharma Inc., priority 2012, dated 2017).

Experiments:
NEK7 = target: T1, NEK7 (Homo sapiens, UniProt Q8TDX7); assay: KinaseProfiler NEK7; assay type: biochemical; conditions: 10 μM, ATP near Km
T1 construct: purchased Millipore, Inc. (KinaseProfiler service)
Excerpt: (§1) The compound was run in duplicate at a concentration of ATP near the Km for each individual kinase according to Millipore's specifications.

PrKX = target: T2, PrKX (Homo sapiens, UniProt P51817); assay: KinaseProfiler PrKX; assay type: biochemical; conditions: 10 μM, ATP near Km
T2 construct: purchased Millipore, Inc. (KinaseProfiler service)
T2 sequence (P51817 whole entry): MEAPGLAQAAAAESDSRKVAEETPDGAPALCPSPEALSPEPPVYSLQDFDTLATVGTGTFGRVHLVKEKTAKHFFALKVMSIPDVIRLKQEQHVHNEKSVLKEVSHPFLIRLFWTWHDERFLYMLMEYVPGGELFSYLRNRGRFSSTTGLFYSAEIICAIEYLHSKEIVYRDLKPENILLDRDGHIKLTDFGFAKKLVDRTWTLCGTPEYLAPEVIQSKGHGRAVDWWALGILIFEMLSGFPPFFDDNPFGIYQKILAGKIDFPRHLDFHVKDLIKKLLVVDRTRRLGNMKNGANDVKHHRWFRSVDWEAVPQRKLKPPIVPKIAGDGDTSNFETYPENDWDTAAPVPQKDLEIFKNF
Excerpt: as §1

Fgr = target: T3, Fgr (Homo sapiens, UniProt P09769); assay: KinaseProfiler Fgr; assay type: biochemical; conditions: 10 μM, ATP near Km
T3 construct: purchased Millipore, Inc. (KinaseProfiler service)
Excerpt: as §1

RIPK2 = target: T4, RIPK2 (Homo sapiens, UniProt O43353); assay: KinaseProfiler RIPK2; assay type: biochemical; conditions: 10 μM, ATP near Km
T4 construct: purchased Millipore, Inc. (KinaseProfiler service)
T4 sequence (O43353 whole entry): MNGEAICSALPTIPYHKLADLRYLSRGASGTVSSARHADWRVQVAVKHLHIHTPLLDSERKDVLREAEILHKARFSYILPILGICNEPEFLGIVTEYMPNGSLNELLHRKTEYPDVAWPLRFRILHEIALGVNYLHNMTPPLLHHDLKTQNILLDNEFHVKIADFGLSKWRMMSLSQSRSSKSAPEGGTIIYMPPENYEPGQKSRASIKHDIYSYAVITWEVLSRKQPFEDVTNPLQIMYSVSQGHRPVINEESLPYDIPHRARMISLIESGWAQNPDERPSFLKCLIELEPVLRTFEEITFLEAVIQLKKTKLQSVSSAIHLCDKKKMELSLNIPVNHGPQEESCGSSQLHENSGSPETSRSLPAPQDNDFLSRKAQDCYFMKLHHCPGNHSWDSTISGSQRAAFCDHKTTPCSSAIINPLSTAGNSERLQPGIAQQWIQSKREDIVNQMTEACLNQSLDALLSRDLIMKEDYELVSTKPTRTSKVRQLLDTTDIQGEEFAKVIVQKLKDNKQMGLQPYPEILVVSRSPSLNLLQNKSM
Excerpt: as §1

EphA4 = target: T5, EphA4 (Homo sapiens, UniProt P54764); assay: KinaseProfiler EphA4; assay type: biochemical; conditions: 10 μM, ATP near Km
T5 construct: purchased Millipore, Inc. (KinaseProfiler service)
Excerpt: as §1

TAO1 = target: T6, TAO1 (Homo sapiens, UniProt Q7L7X3); assay: KinaseProfiler TAO1; assay type: biochemical; conditions: 10 μM, ATP near Km
T6 construct: purchased Millipore, Inc. (KinaseProfiler service)
Excerpt: as §1

p38delta = target: T7, p38delta (Homo sapiens, UniProt O15264); assay: KinaseProfiler p38delta; assay type: biochemical; conditions: 10 μM, ATP near Km
T7 construct: purchased Millipore, Inc. (KinaseProfiler service)
Excerpt: as §1

CK1_y = assay: KinaseProfiler CK1_y; assay type: biochemical; conditions: 10 μM, ATP near Km
GRK7 = target: T8, GRK7 (Homo sapiens, UniProt Q8WTQ7); assay: KinaseProfiler GRK7; assay type: biochemical; conditions: 10 μM, ATP near Km
T8 construct: purchased Millipore, Inc. (KinaseProfiler service)
Excerpt: as §1

SRPK2 = target: T9, SRPK2 (Homo sapiens, UniProt P78362); assay: KinaseProfiler SRPK2; assay type: biochemical; conditions: 10 μM, ATP near Km
T9 construct: purchased Millipore, Inc. (KinaseProfiler service)
Excerpt: as §1

CDK6/cyclinD3 = target: T10, CDK6/cyclinD3 (Homo sapiens, UniProt Q00534); assay: KinaseProfiler CDK6/cyclinD3; assay type: biochemical; conditions: 10 μM, ATP near Km
T10 construct: purchased Millipore, Inc. (KinaseProfiler service)
Excerpt: as §1

PRKG1beta = target: T11, PRKG1beta (Homo sapiens, UniProt Q13976); assay: KinaseProfiler PRKG1beta; assay type: biochemical; conditions: 10 μM, ATP near Km
T11 construct: purchased Millipore, Inc. (KinaseProfiler service)
Excerpt: as §1

ERK1 = target: T12, ERK1 (Homo sapiens, UniProt P27361); assay: KinaseProfiler ERK1; assay type: biochemical; conditions: 10 μM, ATP near Km
T12 construct: purchased Millipore, Inc. (KinaseProfiler service)
T12 sequence (P27361 whole entry): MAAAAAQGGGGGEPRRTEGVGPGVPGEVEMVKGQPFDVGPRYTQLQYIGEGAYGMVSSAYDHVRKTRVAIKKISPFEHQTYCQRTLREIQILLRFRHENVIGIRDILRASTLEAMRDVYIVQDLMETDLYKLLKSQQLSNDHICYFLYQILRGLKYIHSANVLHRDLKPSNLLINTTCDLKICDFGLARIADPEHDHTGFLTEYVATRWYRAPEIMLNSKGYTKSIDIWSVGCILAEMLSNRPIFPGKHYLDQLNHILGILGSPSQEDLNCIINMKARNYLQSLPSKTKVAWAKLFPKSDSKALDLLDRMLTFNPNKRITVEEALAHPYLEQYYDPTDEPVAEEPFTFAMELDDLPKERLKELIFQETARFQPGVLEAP
Excerpt: as §1

CDK3/cyclinE = target: T13, CDK3/cyclinE (Homo sapiens, UniProt Q00526); assay: KinaseProfiler CDK3/cyclinE; assay type: biochemical; conditions: 10 μM, ATP near Km
T13 construct: purchased Millipore, Inc. (KinaseProfiler service)
Excerpt: as §1

Yes = target: T14, Yes (Homo sapiens, UniProt P07947); assay: KinaseProfiler Yes; assay type: biochemical; conditions: 10 μM, ATP near Km
T14 construct: purchased Millipore, Inc. (KinaseProfiler service)
Excerpt: as §1

MST1 = target: T15, MST1 (Homo sapiens, UniProt Q13043); assay: KinaseProfiler MST1; assay type: biochemical; conditions: 10 μM, ATP near Km
T15 construct: purchased Millipore, Inc. (KinaseProfiler service)
Excerpt: as §1

FAK2 = target: T16, FAK2 (Homo sapiens, UniProt Q14289); assay: KinaseProfiler FAK2; assay type: biochemical; conditions: 10 μM, ATP near Km
T16 construct: purchased Millipore, Inc. (KinaseProfiler service)
Excerpt: as §1

MAPKAP-K3 = target: T17, MAPKAP-K3 (Homo sapiens, UniProt Q16644); assay: KinaseProfiler MAPKAP-K3; assay type: biochemical; conditions: 10 μM, ATP near Km
T17 construct: purchased Millipore, Inc. (KinaseProfiler service)
T17 sequence (Q16644 whole entry): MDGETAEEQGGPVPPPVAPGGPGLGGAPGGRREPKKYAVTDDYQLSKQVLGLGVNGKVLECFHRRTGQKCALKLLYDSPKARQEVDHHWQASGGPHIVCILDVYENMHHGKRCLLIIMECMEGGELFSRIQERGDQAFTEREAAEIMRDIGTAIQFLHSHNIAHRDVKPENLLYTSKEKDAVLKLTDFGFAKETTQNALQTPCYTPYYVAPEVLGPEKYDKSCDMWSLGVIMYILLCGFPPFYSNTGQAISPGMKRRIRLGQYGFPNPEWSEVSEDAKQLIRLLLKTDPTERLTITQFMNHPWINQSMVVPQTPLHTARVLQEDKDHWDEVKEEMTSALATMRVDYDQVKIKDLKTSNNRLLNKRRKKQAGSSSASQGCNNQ
Excerpt: as §1

CDK1/cyclinB = target: T18, CDK1/cyclinB (Homo sapiens, UniProt P06493); assay: KinaseProfiler CDK1/cyclinB; assay type: biochemical; conditions: 10 μM, ATP near Km
T18 construct: purchased Millipore (KinaseProfiler service)
Excerpt: as §1

EphB1 = target: T19, EphB1 (Homo sapiens, UniProt P54762); assay: KinaseProfiler EphB1; assay type: biochemical; conditions: 10 μM, ATP near Km
T19 construct: purchased Millipore, Inc. (KinaseProfiler service)
Excerpt: as §1

MuSK = target: T20, MuSK (Homo sapiens, UniProt O15146); assay: KinaseProfiler MuSK; assay type: biochemical; conditions: 10 μM, ATP near Km
T20 construct: purchased Millipore, Inc. (KinaseProfiler service)
Excerpt: as §1

HIPK2 = target: T21, HIPK2 (Homo sapiens, UniProt Q9H2X6); assay: KinaseProfiler HIPK2; assay type: biochemical; conditions: 10 μM, ATP near Km
T21 construct: purchased Millipore, Inc. (KinaseProfiler service)
Excerpt: as §1

p38gamma = target: T22, p38gamma (Homo sapiens, UniProt P53778); assay: KinaseProfiler p38gamma; assay type: biochemical; conditions: 10 μM, ATP near Km
T22 construct: purchased Millipore, Inc. (KinaseProfiler service)
Excerpt: as §1

IGF-1R = target: T23, IGF-1R (Homo sapiens, UniProt P08069); assay: KinaseProfiler IGF-1R; assay type: biochemical; conditions: 10 μM, ATP near Km
T23 construct: purchased Millipore, Inc. (KinaseProfiler service)
Excerpt: as §1

FGFR2 = target: T24, FGFR2 (Homo sapiens, UniProt P21802); assay: KinaseProfiler FGFR2; assay type: biochemical; conditions: 10 μM, ATP near Km
T24 construct: purchased Millipore, Inc. (KinaseProfiler service)
Excerpt: as §1

off-target kinases = conditions: 10 μM
Excerpt: as §1

KIT = target: T25, KIT (Homo sapiens, UniProt P10721); assay: KinaseProfiler KIT; assay type: biochemical; conditions: 10 μM, ATP near Km
T25 construct: purchased Millipore, Inc. (KinaseProfiler service)
Excerpt: as §1

DYRK2 = target: T26, DYRK2 (Homo sapiens, UniProt Q92630); assay: KinaseProfiler DYRK2; assay type: biochemical; conditions: 10 μM, ATP near Km
T26 construct: purchased Millipore, Inc. (KinaseProfiler service)
Excerpt: as §1

MKNK2 = target: T27, MKNK2 (Homo sapiens, UniProt Q9HBH9); assay: KinaseProfiler MKNK2; assay type: biochemical; conditions: 10 μM, ATP near Km
T27 construct: purchased Millipore, Inc. (KinaseProfiler service)
Excerpt: as §1

MEK1 = target: T28, MEK1 (Homo sapiens, UniProt Q02750); assay: KinaseProfiler MEK1; assay type: biochemical; conditions: 10 μM, ATP near Km
T28 construct: purchased Millipore, Inc. (KinaseProfiler service)
Excerpt: as §1

MST2 = target: T29, MST2 (Homo sapiens, UniProt Q13188); assay: KinaseProfiler MST2; assay type: biochemical; conditions: 10 μM, ATP near Km
T29 construct: purchased Millipore, Inc. (KinaseProfiler service)
T29 sequence (Q13188 whole entry): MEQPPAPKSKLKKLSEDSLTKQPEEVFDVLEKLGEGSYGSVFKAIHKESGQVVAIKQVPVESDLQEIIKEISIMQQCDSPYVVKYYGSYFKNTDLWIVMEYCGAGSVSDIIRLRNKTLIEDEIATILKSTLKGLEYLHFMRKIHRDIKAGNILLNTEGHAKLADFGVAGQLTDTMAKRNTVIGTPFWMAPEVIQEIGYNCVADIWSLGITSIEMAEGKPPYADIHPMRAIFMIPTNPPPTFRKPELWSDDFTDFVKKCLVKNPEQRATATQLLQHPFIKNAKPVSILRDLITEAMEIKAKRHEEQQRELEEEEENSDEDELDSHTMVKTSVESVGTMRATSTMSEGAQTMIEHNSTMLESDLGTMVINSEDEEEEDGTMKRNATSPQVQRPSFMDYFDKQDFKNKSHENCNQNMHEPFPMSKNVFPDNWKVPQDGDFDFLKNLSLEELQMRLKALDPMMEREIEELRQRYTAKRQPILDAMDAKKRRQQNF
Excerpt: as §1

ROCK-II = target: T30, ROCK-II (Homo sapiens, UniProt O75116); assay: KinaseProfiler ROCK-II; assay type: biochemical; conditions: 10 μM, ATP near Km
T30 construct: purchased Millipore, Inc. (KinaseProfiler service)
Excerpt: as §1

FAK = target: T31, FAK (Homo sapiens, UniProt Q05397); assay: KinaseProfiler FAK; assay type: biochemical; conditions: 10 μM, ATP near Km
T31 construct: purchased Millipore, Inc. (KinaseProfiler service)
T31 sequence (Q05397 whole entry): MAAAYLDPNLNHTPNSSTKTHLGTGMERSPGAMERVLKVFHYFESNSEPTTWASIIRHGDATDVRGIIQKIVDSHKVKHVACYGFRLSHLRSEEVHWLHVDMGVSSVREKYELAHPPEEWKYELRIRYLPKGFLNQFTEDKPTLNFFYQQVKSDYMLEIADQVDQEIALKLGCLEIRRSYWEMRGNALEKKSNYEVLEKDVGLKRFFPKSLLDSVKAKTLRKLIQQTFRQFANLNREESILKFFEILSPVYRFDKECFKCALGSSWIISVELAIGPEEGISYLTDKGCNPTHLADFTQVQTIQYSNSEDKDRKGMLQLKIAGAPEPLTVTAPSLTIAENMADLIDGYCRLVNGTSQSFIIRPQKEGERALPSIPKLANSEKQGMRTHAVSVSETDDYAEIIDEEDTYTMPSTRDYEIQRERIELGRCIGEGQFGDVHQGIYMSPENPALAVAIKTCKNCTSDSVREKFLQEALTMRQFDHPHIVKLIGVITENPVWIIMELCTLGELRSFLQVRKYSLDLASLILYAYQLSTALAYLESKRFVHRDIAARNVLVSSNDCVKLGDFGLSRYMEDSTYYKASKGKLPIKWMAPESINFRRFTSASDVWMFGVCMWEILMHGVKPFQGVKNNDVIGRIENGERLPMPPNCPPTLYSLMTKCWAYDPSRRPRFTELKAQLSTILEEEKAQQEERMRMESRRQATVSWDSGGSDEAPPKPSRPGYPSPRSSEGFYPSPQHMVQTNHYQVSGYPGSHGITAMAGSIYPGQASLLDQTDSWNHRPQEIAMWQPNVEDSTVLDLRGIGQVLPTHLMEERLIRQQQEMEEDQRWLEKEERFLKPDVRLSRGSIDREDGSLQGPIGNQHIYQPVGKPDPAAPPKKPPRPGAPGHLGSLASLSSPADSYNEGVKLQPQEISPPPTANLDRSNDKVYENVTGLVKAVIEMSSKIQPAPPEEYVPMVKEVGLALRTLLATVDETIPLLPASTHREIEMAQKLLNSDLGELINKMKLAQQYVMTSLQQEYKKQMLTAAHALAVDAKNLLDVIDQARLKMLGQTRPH
Excerpt: as §1

AURKA = target: T32, AURKA (Homo sapiens, UniProt O14965); assay: KinaseProfiler AURKA; assay type: biochemical; conditions: 10 μM, ATP near Km
T32 construct: purchased Millipore (KinaseProfiler service)
Excerpt: as §1

TBK1 = target: T33, TBK1 (Homo sapiens, UniProt Q9UHD2); assay: KinaseProfiler TBK1; assay type: biochemical; conditions: 10 μM, ATP near Km
T33 construct: purchased Millipore, Inc. (KinaseProfiler service)
Excerpt: as §1

TAO3 = target: T34, TAO3 (Homo sapiens, UniProt Q9H2K8); assay: KinaseProfiler TAO3; assay type: biochemical; conditions: 10 μM, ATP near Km
T34 construct: purchased Millipore, Inc. (KinaseProfiler service)
Excerpt: as §1

PASK = target: T35, PASK (Homo sapiens, UniProt Q96RG2); assay: KinaseProfiler PASK; assay type: biochemical; conditions: 10 μM, ATP near Km
T35 construct: purchased Millipore, Inc. (KinaseProfiler service)
T35 sequence (Q96RG2 whole entry): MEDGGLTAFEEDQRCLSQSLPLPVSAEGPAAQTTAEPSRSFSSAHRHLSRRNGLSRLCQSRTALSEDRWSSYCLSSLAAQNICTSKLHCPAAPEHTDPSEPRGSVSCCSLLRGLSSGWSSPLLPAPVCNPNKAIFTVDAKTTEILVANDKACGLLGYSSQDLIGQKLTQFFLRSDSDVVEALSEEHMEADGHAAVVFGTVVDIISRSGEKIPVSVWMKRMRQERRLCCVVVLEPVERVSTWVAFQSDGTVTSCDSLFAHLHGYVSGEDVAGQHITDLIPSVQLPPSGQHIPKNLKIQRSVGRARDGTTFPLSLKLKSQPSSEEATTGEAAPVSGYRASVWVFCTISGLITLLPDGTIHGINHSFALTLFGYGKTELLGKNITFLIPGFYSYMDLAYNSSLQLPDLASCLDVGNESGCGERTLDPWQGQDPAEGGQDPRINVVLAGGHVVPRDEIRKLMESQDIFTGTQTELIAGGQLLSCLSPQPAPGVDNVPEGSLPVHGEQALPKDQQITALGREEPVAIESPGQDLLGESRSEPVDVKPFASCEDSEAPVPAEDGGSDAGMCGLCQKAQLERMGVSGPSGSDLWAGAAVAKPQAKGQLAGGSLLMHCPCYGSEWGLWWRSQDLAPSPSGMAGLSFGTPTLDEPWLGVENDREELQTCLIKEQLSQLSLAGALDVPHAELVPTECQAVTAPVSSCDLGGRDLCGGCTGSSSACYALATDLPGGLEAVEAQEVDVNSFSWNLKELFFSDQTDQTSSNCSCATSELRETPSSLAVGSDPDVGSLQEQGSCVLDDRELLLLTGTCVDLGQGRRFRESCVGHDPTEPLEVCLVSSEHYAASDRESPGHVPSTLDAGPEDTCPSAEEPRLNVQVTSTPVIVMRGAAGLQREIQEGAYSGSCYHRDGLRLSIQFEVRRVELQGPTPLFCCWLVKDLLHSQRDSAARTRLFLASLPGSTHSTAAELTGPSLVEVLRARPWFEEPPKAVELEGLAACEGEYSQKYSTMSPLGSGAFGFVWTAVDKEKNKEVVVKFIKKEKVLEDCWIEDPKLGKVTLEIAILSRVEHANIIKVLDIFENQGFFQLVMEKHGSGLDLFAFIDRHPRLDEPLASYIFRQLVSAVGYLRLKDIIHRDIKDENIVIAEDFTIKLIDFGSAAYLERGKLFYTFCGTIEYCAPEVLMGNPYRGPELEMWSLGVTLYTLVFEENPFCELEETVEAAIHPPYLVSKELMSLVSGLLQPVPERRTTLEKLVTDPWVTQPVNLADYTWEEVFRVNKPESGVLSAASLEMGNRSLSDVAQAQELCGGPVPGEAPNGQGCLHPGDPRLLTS
Excerpt: as §1

CK1delta = target: T36, CK1delta (Homo sapiens, UniProt P48730); assay: KinaseProfiler CK1delta; assay type: biochemical; conditions: 10 μM, ATP near Km
T36 construct: purchased Millipore, Inc. (KinaseProfiler service)
T36 sequence (P48730 whole entry): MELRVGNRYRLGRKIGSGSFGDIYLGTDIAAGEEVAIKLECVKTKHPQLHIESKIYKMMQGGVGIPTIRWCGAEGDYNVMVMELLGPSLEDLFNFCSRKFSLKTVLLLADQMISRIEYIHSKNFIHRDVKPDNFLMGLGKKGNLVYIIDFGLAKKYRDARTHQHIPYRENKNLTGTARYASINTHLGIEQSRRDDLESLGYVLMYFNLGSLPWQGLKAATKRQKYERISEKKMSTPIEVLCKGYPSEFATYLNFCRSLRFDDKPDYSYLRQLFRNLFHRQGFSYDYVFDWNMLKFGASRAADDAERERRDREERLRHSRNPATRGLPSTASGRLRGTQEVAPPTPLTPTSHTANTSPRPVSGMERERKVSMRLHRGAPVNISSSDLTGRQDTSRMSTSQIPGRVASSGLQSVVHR
Excerpt: as §1

GSK3alpha = target: T37, GSK3alpha (Homo sapiens, UniProt P49840); assay: KinaseProfiler GSK3alpha; assay type: biochemical; conditions: 10 μM, ATP near Km
T37 construct: purchased Millipore, Inc. (KinaseProfiler service)
Excerpt: as §1

Rsk4 = target: T38, Rsk4 (Homo sapiens, UniProt Q9UK32); assay: KinaseProfiler Rsk4; assay type: biochemical; conditions: 10 μM, ATP near Km
T38 construct: purchased Millipore, Inc. (KinaseProfiler service)
Excerpt: as §1

JAK2 = target: T39, JAK2 (Homo sapiens, UniProt O60674); assay: KinaseProfiler JAK2; assay type: biochemical; conditions: 10 μM, ATP near Km
T39 construct: purchased Millipore, Inc. (KinaseProfiler service)
Excerpt: as §1

GRK6 = target: T40, GRK6 (Homo sapiens, UniProt P43250); assay: KinaseProfiler GRK6; assay type: biochemical; conditions: 10 μM, ATP near Km
T40 construct: purchased Millipore, Inc. (KinaseProfiler service)
Excerpt: as §1

Ron = target: T41, Ron (Homo sapiens, UniProt Q04912); assay: KinaseProfiler Ron; assay type: biochemical; conditions: 10 μM, ATP near Km
T41 construct: purchased Millipore, Inc. (KinaseProfiler service)
Excerpt: as §1

`Cc1c(-c2cnn(C)c2)nn(-c2ccccc2)c1NC(=O)Nc1cc(C(F)(F)F)nn1-c1ccccc1` [Example 3, 1-(1′,4-dimethyl-1-phenyl-1H,1′H-[3,4′-bipyrazol]-5-yl)-3-(1-phenyl-3-(trifluoromethyl)-1H-pyrazol-5-yl)urea] was tested, and the “Avg POC” value (NEK7) was 118 POC, the “Avg POC” value (PrKX) was 188 POC and the “Avg POC” value (Fgr) was 118 POC. The “Avg POC” value (RIPK2) was 96.5 POC, the “Avg POC” value (EphA4) was 106.5 POC and the “Avg POC” value (TAO1) was 119 POC. The “Avg POC” value (p38delta) was 92.5 POC, the “Avg POC” value (CK1_y) was 98 POC and the “Avg POC” value (GRK7) was 104.5 POC. For the same compound, the “Avg POC” value (SRPK2) was 112.5 POC, the “Avg POC” value (CDK6/cyclinD3) was 107.5 POC and the “Avg POC” value (PRKG1beta) was 98 POC. For the same compound, the “Avg POC” value (ERK1) was 111.5 POC, the “Avg POC” value (CDK3/cyclinE) was 103 POC and the “Avg POC” value (Yes) was 114 POC. The “Avg POC” value (MST1) was 92.5 POC, the “Avg POC” value (FAK2) was 103.5 POC and the “Avg POC” value (MAPKAP-K3) was 128.5 POC. For the same compound, the “Avg POC” value (CDK1/cyclinB) was 102.5 POC, the “Avg POC” value (EphB1) was 122 POC and the “Avg POC” value (MuSK) was 82.5 POC. For the same compound, the “Avg POC” value (HIPK2) was 101.5 POC, the “Avg POC” value (p38gamma) was 114.5 POC and the “Avg POC” value (IGF-1R) was 74.5 POC. For the same compound, the “Avg POC” value (FGFR2) was 110 POC, the “activity against off-target kinases” value (off-target kinases) was “largely inactive” and the “Avg POC” value (KIT) was 86.5 POC. The “Avg POC” value (DYRK2) was 92.5 POC, the “Avg POC” value (MKNK2) was 99 POC and the “Avg POC” value (MEK1) was 111 POC. For the same compound, the “Avg POC” value (MST2) was 102.5 POC, the “Avg POC” value (ROCK-II) was 110 POC and the “Avg POC” value (FAK) was 105.5 POC. For the same compound, the “Avg POC” value (AURKA) was 121 POC, the “Avg POC” value (TBK1) was 103 POC and the “Avg POC” value (TAO3) was 94 POC. The “Avg POC” value (PASK) was 147 POC, the “Avg POC” value (CK1delta) was 141 POC and the “Avg POC” value (GSK3alpha) was 170 POC. For the same compound, the “Avg POC” value (Rsk4) was 99 POC, the “Avg POC” value (JAK2) was 136.5 POC and the “Avg POC” value (GRK6) was 105 POC. For the same compound, the “Avg POC” value (Ron) was 90.5 POC.
